{"source": "paper PMC3997336", "about": "(PLoS ONE, 2014)", "target": "T1, MKK7 (Homo sapiens, UniProt O14733)", "T1 construct": "gene MAP2K7", "T1 sequence (O14733 2-419)": "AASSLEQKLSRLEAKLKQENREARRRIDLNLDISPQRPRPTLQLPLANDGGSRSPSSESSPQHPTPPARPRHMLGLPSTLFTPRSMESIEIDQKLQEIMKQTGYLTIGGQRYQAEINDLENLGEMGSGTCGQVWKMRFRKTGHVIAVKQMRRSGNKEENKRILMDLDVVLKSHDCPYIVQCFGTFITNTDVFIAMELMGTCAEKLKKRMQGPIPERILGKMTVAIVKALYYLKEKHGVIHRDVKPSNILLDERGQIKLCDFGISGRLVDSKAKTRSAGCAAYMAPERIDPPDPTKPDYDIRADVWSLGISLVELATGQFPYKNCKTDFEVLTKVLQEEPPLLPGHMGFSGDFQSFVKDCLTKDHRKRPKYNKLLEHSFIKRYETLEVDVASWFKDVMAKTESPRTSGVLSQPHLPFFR", "experiment": "biochemical", "data": [{"compound": "COc1ccc2c(Cc3ccc(O[Si](C)(C)C(C)(C)C)cc3)c3[n+](cc2c1OC)CCc1cc2c(cc1-3)OCO2", "note": "[HWY336]", "values": [{"measurement": "IC50", "result": 10, "unit": "µM"}]}]}
